This passage reports IC50 results from patent US20140005164A1, “WNT PATHWAY ANTAGONISTS” (Siena Biotech S.p.A., priority 2011, published 2014).

Where two headings read alike, the source gives them in different places.

The test system of this experiment is Wnt/β-catenin pathway. Put plainly: Wnt reporter assay (TCF-Luciferase, Firefly) in DBTRG-05MG cells. To be noted: Homo sapiens, read-out: IC50 value in the reporter assay. Type of experiment: cell-based. Here is the method:
Three copies of a 4×TCF responsive elements were cloned into the pcDNA3.1/Zeo(+) vector (Invitrogen) after deletion of the constitutive CMV promoter and the insertion of the Firefly Luciferase from Promega (phFL-TK) to measure the activity of the Wnt/β-catenin pathway. The resulting plasmid was sequenced for quality control.
Cells were grown in 20 μg/ml Zeocin and 20 μg/ml Zeocin plus 30 μg/ml Hygromicin respectively. The cells were plated at a density of 6500 cells/well in poly-D-lysine pre-treated 96 well-plates.
36 hours after plating cells were incubated with 8-points dilutions compound (0.6% DMSO (v/v)). Each compound was tested in triplicate in single plate. Luciferase detection was done with Dual-Luciferase Reporter Assay System (Promega). 24 hours after compound addition, media was removed and 30 μl of 1× lysis buffer was added to each well for 30 minutes. To each well 45 μl of Dual-Glo Luciferase reagent (Promega) were added and after 1 second delay Luciferase was detected for 1 second using Mithras LB940 instrument. After Firefly luciferase quantification 45 μl of Dual Stop & Glo reagent (Promega) were added to each well and […] Renilla was detected using the same parameters described before.
Data were expressed as % of control for Firefly and Renilla luciferase independently; values were calculated using XLFit version 4.2, with a four parameters sigmoid function (XLFit model 205).

Setting [1] is: TCF-Luciferase (Firefly) read out, 24 hours after compound addition, range given with mixed units nM and μM.

Turning to `COC/C=C/c1ccc2c(c1)n(C[C@H]1CC[C@H](C(=O)Nc3ccncc3)CC1)c(=O)n2C` [Example 113], the IC50 under setting [1] lay within 35 to 23000 nM.

On to `COc1ccc2c(c1)n(C[C@H]1CC[C@H](C(=O)Nc3nc4ccccc4s3)CC1)c(=O)n2C` [Example 187], for which the IC50 under setting [1] was 35 to 23000 nM.

Turning to `COc1cc2c(cc1F)n(C)c(=O)n2C[C@H]1CC[C@H](c2nnc(-c3cccnc3)o2)CC1` [Example 175], the half-inhibitory concentration (IC50) under setting [1] was in the range of 35 to 23000 nM.

Regarding `CN(C)CCN(C)c1ccc2c(n1)n(C[C@H]1CC[C@H](C(=O)Nc3ccncc3)CC1)c(=O)n2C` [Example 5, Trans-4-{5-[(2-Dimethylamino-ethyl)-methyl-amino]-1-methyl-2-oxo-1,2-dihydro-imidazo[4,5-b]pyridin-3-ylmethyl}-cyclohexanecarboxylic acid pyridin-4-ylamide], the IC50 (24 h) lay within 35 to 23000 nM.

With `COc1cc2c(cc1F)n(C)c(=O)n2C[C@H]1CC[C@H](C(=O)N2CCOCC2)CC1` [Example 160], the IC50 under setting [1] is 35 to 23000 nM.

As to `COc1ccc(COc2ccc3c(c2)n(C[C@H]2CC[C@H](C(=O)Nc4ccncc4)CC2)c(=O)n3C)cc1` [Example 6, Trans-4-[6-(4-Methoxy-benzyloxy)-3-methyl-2-oxo-2,3-dihydro-benzoimidazol-1-ylmethyl]-cyclohexanecarboxylic acid pyridin-4-ylamide], the IC50 under setting [1] fell in the range of 35 to 23000 nM.

Turning to `COCCOc1ccc2c(c1)n(C[C@H]1CC[C@H](C(=O)N3CCN(c4ccncc4)CC3)CC1)c(=O)n2C` [Example 157], the IC50 under setting [1] fell in the range of 35 to 23000 nM.

Turning to `COc1ccc2c(c1)n(C[C@H]1CC[C@H](C(=O)Nc3ccncn3)CC1)c(=O)n2C` [Example 104], under setting [1], the IC50 lay within 35 to 23000 nM.

`CCOCc1nnc([C@H]2CC[C@H](Cn3c(=O)n(C)c4ccc(OC)cc43)CC2)o1` [Example 107]: the IC50 under setting [1] is 35 to 23000 nM.

For the compound `COc1ccc2c(c1)n(C[C@H]1CC[C@H](c3c[nH]c(NC(C)=O)n3)CC1)c(=O)n2C` [Example 19, N-{4-[trans-4-(6-Methoxy-3-methyl-2-oxo-2,3-dihydro-benzoimidazol-1-ylmethyl)-cyclohexyl]-1H-imidazol-2-yl}-acetamide], the IC50 under setting [1] is 35 to 23000 nM.

Turning to `CC(=O)N1CCN(C(=O)[C@H]2CC[C@H](Cn3c(=O)n(C)c4ccc(CCCC#N)nc43)CC2)CC1` [Example 101], under setting [1], the IC50 fell in the range of 35 to 23000 nM.

For `COc1ccc2c(c1)n(C[C@H]1CC[C@H](C(=O)N3CCN(c4cccc(OC)n4)CC3)CC1)c(=O)n2C` [Example 65], the IC50 under setting [1] was 35 to 23000 nM.

As to `COCCOc1ccc2c(c1)n(C[C@H]1CC[C@H](c3nnc(-c4cccnn4)o3)CC1)c(=O)n2C` [Example 163], the IC50 under setting [1] fell in the range of 35 to 23000 nM.

As to `COc1ccc2c(c1)n(C[C@H]1CC[C@H](C(=O)N3CCN(c4ccc(C)nc4)CC3)CC1)c(=O)n2C` [Example 93], under setting [1], the IC50 lay within 35 to 23000 nM.

On to `COCCOc1cc(NC(=O)[C@H]2CC[C@H](Cn3c(=O)n(C)c4ccc(OC)cc43)CC2)ccn1` [Example 36], for which, under setting [1], the IC50 lay within 35 to 23000 nM.

Regarding `Cn1c(=O)n(C[C@H]2CC[C@H](C(=O)N3CCN(c4ccncc4)CC3)CC2)c2cc(C#N)ccc21` [Example 123], the IC50 under setting [1] was in the range of 35 to 23000 nM.

For the compound `Cn1c(=O)n(C[C@H]2CC[C@H](C(=O)Nc3ccncc3)CC2)c2nc(OCC#N)ccc21` [Example 167], the IC50 under setting [1] lay within 35 to 23000 nM.

On to `Cn1c(=O)n(C[C@H]2CC[C@H](C(=O)Nc3ccncc3)CC2)c2nc(NCc3cccnc3)ccc21` [Example 126], for which the IC50 under setting [1] lay within 35 to 23000 nM.

For the compound `COc1ccc2c(c1)n(C[C@H]1CC[C@H](c3nnc(-c4ccncc4)o3)CC1)c(=O)n2C` [Example 97], under setting [1], the IC50 fell in the range of 35 to 23000 nM.

For the compound `Cn1c(=O)n(C[C@H]2CC[C@H](C(=O)N3CCN(c4nccs4)CC3)CC2)c2ccc(Cl)cc21` [Example 54], under setting [1], the IC50 is 35 to 23000 nM.

Take `COCCOc1ccc2c(n1)n(C[C@H]1CC[C@H](C(=O)Nc3ccncc3)CC1)c(=O)n2C` [Example 150]: the IC50 under setting [1] was 35 to 23000 nM.

As to `Cn1c(=O)n(C[C@H]2CC[C@H](C(=O)N3CCN(c4ncccn4)CC3)CC2)c2cc(Cl)ccc21` [Example 47], the IC50 under setting [1] is 35 to 23000 nM.

On to `Cn1c(=O)n(C[C@H]2CC[C@H](C(=O)Nc3ccncc3)CC2)c2cc(OCCC=C(F)F)ccc21` [Example 138], for which the IC50 under setting [1] was 35 to 23000 nM.

Consider `Cn1c(=O)n(C[C@H]2CC[C@H](C(=O)Nc3ccnc(N4CCOCC4)c3)CC2)c2cccc(Cl)c21` [Example 43], for which the IC50 under setting [1] is 35 to 23000 nM.

For `COCCOc1ccc2c(n1)n(C[C@H]1CC[C@H](C(=O)Nc3ccnnc3)CC1)c(=O)n2C` [Example 173], the IC50 under setting [1] fell in the range of 35 to 23000 nM.

Regarding `COc1ccc2c(c1)n(C[C@H]1CC[C@H](C(=O)Nc3ccn(C)n3)CC1)c(=O)n2C` [Example 133], the IC50 under setting [1] was in the range of 35 to 23000 nM.

Turning to `COc1ccc2c(c1)n(C[C@H]1CC[C@H](C(=O)N3CCC4(CC3)OCCO4)CC1)c(=O)n2C` [Example 86], for the setting “24 h”, the IC50 lay within 35 to 23000 nM.

Turning to `COc1ccc2c(c1)n(C[C@H]1CC[C@H](C(=O)N3CCN(c4cnccn4)CC3)CC1)c(=O)n2C` [Example 60], the IC50 under setting [1] was in the range of 35 to 23000 nM.

As for `COc1ccc2c(c1)n(C[C@H]1CC[C@H](c3cc(-c4ccncc4)n[nH]3)CC1)c(=O)n2C` [Example 13, 5-Methoxy-1-methyl-3-[trans-4-(5-pyridin-4-yl-2H-pyrazol-3-yl)-cyclohexylmethyl]-1,3-dihydro-benzoimidazol-2-one], the IC50 under setting [1] was 35 to 23000 nM.

In the case of `COc1ccc2c(c1)n(C[C@H]1CC[C@H](C(=O)Nc3ccnc(Cl)c3)CC1)c(=O)n2C` [Example 32], the IC50 under setting [1] was 35 to 23000 nM.

As to `COc1ccc2c(c1)n(C[C@H]1CC[C@H](C(=O)N3[C@H](C)CCC[C@@H]3C)CC1)c(=O)n2C` [Example 59], the IC50 under setting [1] lay in the range of 35 to 23000 nM.

`COc1ccc2c(c1)n(C[C@H]1CC[C@H](C(=O)N3CCN(C(=O)[C@@H]4CCC(=O)O4)CC3)CC1)c(=O)n2C` [Example 74]: the IC50 under setting [1] lay within 35 to 23000 nM.

Regarding `COc1cccc(COc2ccc3c(n2)n(C[C@H]2CC[C@H](C(=O)Nc4ccncc4)CC2)c(=O)n3C)c1` [Example 10, Trans-4-[5-(3-Methoxy-benzyloxy)-1-methyl-2-oxo-1,2-dihydro-imidazo[4,5-b]pyridin-3-ylmethyl]-cyclohexane carboxylic acid pyridin-4-ylamide], the IC50 (24 h) is 35 to 23000 nM.

As to `COCCOc1ccc2c(c1)n(C[C@H]1CC[C@H](C(=O)Nc3ccncn3)CC1)c(=O)n2C` [Example 122], the IC50 under setting [1] was 35 to 23000 nM.

As to `COc1cc2c(cc1F)n(C)c(=O)n2C[C@H]1CC[C@H](C(=O)N2C[C@@H](C)O[C@@H](C)C2)CC1` [Example 179], the IC50 under setting [1] lay within 35 to 23000 nM.

Take `COc1ccc2c(c1)n(C[C@H]1CC[C@H](C(=O)N3CCN(C(=O)[C@H]4CCC(=O)O4)CC3)CC1)c(=O)n2C` [Example 75]: the IC50 under setting [1] lay within 35 to 23000 nM.

`COc1ccc2c(c1)n(C[C@H]1CC[C@H](C(=O)N3CCN(c4cccc(C(F)(F)F)n4)CC3)CC1)c(=O)n2C` [Example 87]: under setting [1], the IC50 was 35 to 23000 nM.

For `COc1ccc2c(c1)n(C[C@H]1CC[C@H](C(=O)N3CCN(c4ccc(C(F)(F)F)nc4)CC3)CC1)c(=O)n2C` [Example 90], the IC50 under setting [1] lay in the range of 35 to 23000 nM.

In the case of `COCCN(C)c1ccc2c(n1)n(C[C@H]1CC[C@H](C(=O)Nc3ccncc3)CC1)c(=O)n2C` [Example 108], the IC50 under setting [1] is 35 to 23000 nM.

As to `Cn1c(=O)n(C[C@H]2CC[C@H](C(=O)Nc3ccnnc3)CC2)c2[nH]c(=O)ccc21` [Example 9, Trans-4-(1-Methyl-2,5-dioxo-1,2,4,5-tetrahydro-imidazo[4,5-b]pyridin-3-ylmethyl)-cyclohexanecarboxylic acid pyridazin-4-ylamide], the IC50 under setting [1] was in the range of 35 to 23000 nM.

Consider `Cn1c(=O)n(C[C@H]2CC[C@H](C(=O)Nc3ccncc3)CC2)c2cc(OCCCC#N)ccc21` [Example 136], for which the IC50 under setting [1] lay within 35 to 23000 nM.

On to `COc1ccc2c(c1)n(C[C@H]1CC[C@H](c3nnc(-c4cn(C)nc4C(F)(F)F)o3)CC1)c(=O)n2C` [Example 11, 5-Methoxy-1-methyl-3-{trans 4-[5-(1-methyl-3-trifluoromethyl-1H-pyrazol-4-yl)-[1,3,4]oxadiazol-2-yl]-cyclohexylmethyl}-1,3-dihydro-benzoimidazol-2-one], for which the half-inhibitory concentration (IC50) under setting [1] lay within 35 to 23000 nM.

With `COc1ccc2c(c1)n(C[C@H]1CC[C@H](C(=O)N3CCNC(=O)C3)CC1)c(=O)n2C` [Example 105], the IC50 under setting [1] is 35 to 23000 nM.

Turning to `Cn1c(=O)n(C[C@H]2CC[C@H](c3nnc(-c4cccnc4)o3)CC2)c2cc(C#N)ccc21` [Example 124], the IC50 under setting [1] was in the range of 35 to 23000 nM.

Take `COc1ccc2c(c1)n(C[C@H]1CC[C@H](C(=O)Nc3cncnc3)CC1)c(=O)n2C` [Example 103]: the IC50 under setting [1] is 35 to 23000 nM.

`COc1cc2c(cc1F)n(C)c(=O)n2C[C@H]1CC[C@H](C(=O)N2CC=C(c3cnn(C)c3)CC2)CC1` [Example 143]: under setting [1], the IC50 lay in the range of 35 to 23000 nM.

Consider `COc1ccc2c(c1)n(C[C@H]1CC[C@H](c3nnc(-c4ccnnc4)o3)CC1)c(=O)n2C` [Example 164], for which the IC50 under setting [1] was in the range of 35 to 23000 nM.

Regarding `COc1ccc2c(c1)n(C[C@H]1CC[C@H](C(=O)N3CCC(F)(F)CC3)CC1)c(=O)n2C` [Example 35], under setting [1], the IC50 fell in the range of 35 to 23000 nM.

For `COc1ccc2c(c1)n(C[C@H]1CC[C@H](C(=O)Nc3ccc(N4C[C@@H](C)O[C@@H](C)C4)nc3)CC1)c(=O)n2C` [Example 64], the IC50 under setting [1] was in the range of 35 to 23000 nM.

In the case of `COc1ccc2c(c1)n(C[C@H]1CC[C@H](C(=O)Nc3ccncc3F)CC1)c(=O)n2C` [Example 38], the IC50 under setting [1] lay within 35 to 23000 nM.

For orientation: IC50 means the point on the concentration scale where inhibition reaches its midpoint.
